Measured values published in patent publication US11969400B2, “Ibuprofen for symptomatic treatment of diarrheas in HIV patients” (priority 2021, dated 2024).

Tested on: noninfectious diarrhea in HIV positive subjects
Test: Randomized double-blinded study of Acetaminophen vs Ibuprofen suspension in HIV positive subjects with noninfectious diarrhea
Format: in vivo, human
Conditions: for average number of stools twenty-four hours later: after 24 hours of treatment, clear liquid diet, range in brackets, two-tailed p <0.0001 between groups, 95% CI 1.44-2.6; for average number of stools on the first visit (day 1): baseline at first visit (day 1), 42 enrollees per group
Procedure: HIV positive subjects who present with noninfectious diarrhea are enrolled in a study. All enrollees are randomly divided into two groups A (Acetaminophen) and B (Ibuprofen) and treated for 24 hours. They receive a double-blinded suspension of either Acetaminophen or Ibuprofen during the study period. The enrollees are instructed to consume only a clear liquid diet during the study period. After 24 hours, the number of loose stools since last visit and status of hydration are reassessed. In addition, enrollees are examined and assessed for any possible side effects of the medications. A total of 84 patients are enrolled into the study. Both drug categories has 42 (50%) enrollees. Two patients are lost to follow up in each group. The average number of stools on the first visit (day 1) in group A (Acetaminophen) is 5.12 and the average number of stools in group B (ibuprofen) is 5.25. Twenty-four hours later, the average number of stools, in group A is 3.45 (1-5) and the average number of stool in group B, is 1.9 (0-4). The two-tailed p-value was <0.0001 with a confidence interval at 95% (1.44-2.6).

CC(C)Cc1ccc(C(C)C(=O)O)cc1 (stereo not shown) [ibuprofen]
average number of stools twenty-four hours later: 1.9 (0-4) | average number of stools on the first visit (day 1): 5.25

CC(=O)Nc1ccc(O)cc1 [Acetaminophen]
average number of stools twenty-four hours later: 3.45 (1-5) | average number of stools on the first visit (day 1): 5.12
